The source made the active and inactive calls. The calls are words filed in the database; no cut-off is given here.
How the values were obtained:
[1] = biological target: T1, Serine/threonine-protein kinase ATR (Homo sapiens, UniProt Q13535); assay: Inhibition of ATR in human Jurkat cell lysates at 0.003 to 0.3 uM in presence of biotinylated ADP by KiNativ profiling based mass spectrometry; type: subcellular; conditions: dose 0.003-0.3 µM
Target sequence in this assay (Q13535 whole entry, looked up): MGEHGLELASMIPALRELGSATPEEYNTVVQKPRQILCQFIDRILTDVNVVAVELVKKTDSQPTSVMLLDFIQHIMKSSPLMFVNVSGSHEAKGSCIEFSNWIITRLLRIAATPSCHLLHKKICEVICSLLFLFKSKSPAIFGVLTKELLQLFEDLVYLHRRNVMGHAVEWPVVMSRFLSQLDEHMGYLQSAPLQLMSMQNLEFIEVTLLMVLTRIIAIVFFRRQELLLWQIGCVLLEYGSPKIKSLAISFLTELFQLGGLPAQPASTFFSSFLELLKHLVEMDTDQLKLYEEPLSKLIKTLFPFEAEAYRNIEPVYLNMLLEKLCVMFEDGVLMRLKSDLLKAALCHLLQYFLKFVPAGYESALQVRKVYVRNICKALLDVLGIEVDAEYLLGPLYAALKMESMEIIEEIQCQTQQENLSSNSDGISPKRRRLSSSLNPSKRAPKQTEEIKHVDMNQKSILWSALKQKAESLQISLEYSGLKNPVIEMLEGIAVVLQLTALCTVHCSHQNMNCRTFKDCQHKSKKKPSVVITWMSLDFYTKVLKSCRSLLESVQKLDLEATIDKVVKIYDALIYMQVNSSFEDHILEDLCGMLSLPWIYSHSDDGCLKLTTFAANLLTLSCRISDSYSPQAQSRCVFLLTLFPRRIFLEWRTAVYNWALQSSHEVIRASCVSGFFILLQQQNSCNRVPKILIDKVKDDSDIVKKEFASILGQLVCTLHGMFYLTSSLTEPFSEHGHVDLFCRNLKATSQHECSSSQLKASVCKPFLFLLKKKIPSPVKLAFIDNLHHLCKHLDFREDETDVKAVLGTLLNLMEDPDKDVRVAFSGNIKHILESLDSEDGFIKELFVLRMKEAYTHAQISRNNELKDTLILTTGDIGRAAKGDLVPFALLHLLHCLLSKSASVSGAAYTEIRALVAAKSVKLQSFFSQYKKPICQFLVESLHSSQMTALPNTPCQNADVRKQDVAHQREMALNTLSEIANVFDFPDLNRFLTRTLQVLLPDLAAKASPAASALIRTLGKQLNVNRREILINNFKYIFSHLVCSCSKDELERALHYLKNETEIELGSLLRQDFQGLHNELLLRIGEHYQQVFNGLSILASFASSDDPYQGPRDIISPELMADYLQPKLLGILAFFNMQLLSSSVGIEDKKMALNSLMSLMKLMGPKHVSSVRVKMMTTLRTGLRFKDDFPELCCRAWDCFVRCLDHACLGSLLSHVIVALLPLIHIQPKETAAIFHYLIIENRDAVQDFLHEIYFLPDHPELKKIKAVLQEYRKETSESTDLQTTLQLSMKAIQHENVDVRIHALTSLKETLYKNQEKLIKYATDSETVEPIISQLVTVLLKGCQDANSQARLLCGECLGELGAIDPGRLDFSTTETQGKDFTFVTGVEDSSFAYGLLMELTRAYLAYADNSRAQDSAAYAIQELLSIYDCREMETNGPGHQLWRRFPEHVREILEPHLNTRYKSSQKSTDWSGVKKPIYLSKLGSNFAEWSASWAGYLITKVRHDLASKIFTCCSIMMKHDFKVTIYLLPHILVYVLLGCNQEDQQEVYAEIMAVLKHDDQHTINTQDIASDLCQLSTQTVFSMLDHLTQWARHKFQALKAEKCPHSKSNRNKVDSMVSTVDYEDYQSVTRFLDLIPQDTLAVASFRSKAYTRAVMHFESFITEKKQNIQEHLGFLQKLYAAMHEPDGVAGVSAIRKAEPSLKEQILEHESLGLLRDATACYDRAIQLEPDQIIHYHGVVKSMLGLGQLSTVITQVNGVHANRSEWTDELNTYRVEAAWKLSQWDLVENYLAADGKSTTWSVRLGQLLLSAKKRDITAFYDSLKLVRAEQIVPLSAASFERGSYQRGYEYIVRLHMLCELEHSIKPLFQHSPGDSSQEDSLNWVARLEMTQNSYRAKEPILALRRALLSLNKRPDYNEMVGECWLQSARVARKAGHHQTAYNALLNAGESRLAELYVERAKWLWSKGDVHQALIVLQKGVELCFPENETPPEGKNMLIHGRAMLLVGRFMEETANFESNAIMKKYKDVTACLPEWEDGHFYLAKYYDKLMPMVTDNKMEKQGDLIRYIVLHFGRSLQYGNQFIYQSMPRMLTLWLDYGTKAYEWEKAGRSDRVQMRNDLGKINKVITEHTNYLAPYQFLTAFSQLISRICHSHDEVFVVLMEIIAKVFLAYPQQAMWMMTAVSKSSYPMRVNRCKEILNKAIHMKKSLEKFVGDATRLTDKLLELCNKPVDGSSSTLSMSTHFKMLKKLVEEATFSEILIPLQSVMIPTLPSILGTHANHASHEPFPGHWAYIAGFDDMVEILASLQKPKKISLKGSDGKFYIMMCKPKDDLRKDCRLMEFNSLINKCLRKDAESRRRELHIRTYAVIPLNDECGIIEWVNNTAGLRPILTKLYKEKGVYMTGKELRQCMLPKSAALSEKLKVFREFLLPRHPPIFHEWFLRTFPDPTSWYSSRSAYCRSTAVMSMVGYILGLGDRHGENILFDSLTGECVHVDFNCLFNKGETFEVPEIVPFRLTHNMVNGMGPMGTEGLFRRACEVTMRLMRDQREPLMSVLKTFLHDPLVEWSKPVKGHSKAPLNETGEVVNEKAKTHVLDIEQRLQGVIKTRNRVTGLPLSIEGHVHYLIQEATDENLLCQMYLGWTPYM

[2] = Toxicity in NOD-SCID mouse xenografted with human Granta-519 cells assessed as reticulocytes count at 5 mg/kg, po qd for 3 days and 4 days off intermittent dosing for 3 cycles co-administered with PARP inhibitor, niraparib and measured on day 21; type: organism-based; conditions: in vivo, 504 h, time 21 day
[3] = Toxicity in NOD-SCID mouse xenografted with human Granta-519 cells assessed as reticulocytes count at 5 mg/kg, po qd for 3 days and 4 days off intermittent dosing for 3 cycles co-administered with PARP inhibitor, niraparib from day 3 to day 6 in each cycle and measured on day 21; type: organism-based; conditions: in vivo, 504 h, time 21 day
[4] = Toxicity in BALB/c mouse assessed as early stage erythroblasts in bone marrow at 10 mg/kg, po qd for 3 days and measured at 2 days after treatment discontinuation by flow cytometry; type: organism-based; conditions: in vivo, 72 h, time 3 day
[5] = Toxicity in NOD-SCID mouse xenografted with human Granta-519 cells assessed as early stage erythroblasts in bone marrow at 10 mg/kg, po qd for 3 days co-administered with PARP inhibitor, niraparib and measured at 4 days after treatment cessation by flow cytometry; type: organism-based; conditions: in vivo, 72 h, time 3 day
[6] = Toxicity in NOD-SCID mouse xenografted with human Granta-519 cells assessed as reduction in early stage erythroblasts in bone marrow at 10 mg/kg, po qd for 1 day co-administered with PARP inhibitor, niraparib by flow cytometry; type: organism-based; conditions: in vivo, 24 h
[7] = Toxicity in BALB/c mouse assessed as mature red blood cells at 10 mg/kg, po qd for 3 days; type: organism-based; conditions: in vivo, 72 h, time 3 day
[8] = Toxicity in NOD-SCID mouse xenografted with human Granta-519 cells assessed as late stage erythroblasts in bone marrow at 10 mg/kg, po qd for 3 days co-administered with PARP inhibitor, niraparib and measured at 4 days after treatment cessation by flow cytometry; type: organism-based; conditions: in vivo, 72 h, time 3 day
[9] = Toxicity in BALB/c mouse assessed as early stage erythroblasts in bone marrow at 10 mg/kg, po qd for 3 days and 4 days off intermittent dosing for 4 cycles by flow cytometry; type: organism-based; conditions: in vivo, 672 h, time 28 day
[10] = Clearance in Sprague-Dawley rat at 1 mg/kg, iv formulated as a solution in 10% PG:18% PEG400 in water or 5% NMP:95% (10% VitE TPGS in water) measured for 24 hrs by reverse phase liquid chromatography coupled to mass spectrometry; type: ADME, organism-based; conditions: in vivo
[11] = Toxicity in BALB/c mouse assessed as decrease in proportion of reticulocytes in bone marrow at 10 mg/kg, po qd for 3 days; type: organism-based; conditions: in vivo, 72 h, time 3 day
[12] = Clearance in monkey liver microsomes at 1 uM in presence of NADPH by ESI/LC-MS/MS analysis; type: ADME, Macaca mulatta, Microsome; conditions: rhesus monkey, read-out: CLH
[13] = Toxicity in BALB/c mouse assessed as late stage erythroblasts in bone marrow at 10 mg/kg, po qd for 3 days and measured at 1 day after treatment discontinuation by flow cytometry; type: organism-based; conditions: in vivo, 72 h, time 3 day
[14] = Toxicity in NOD-SCID mouse xenografted with human Granta-519 cells assessed as changes in body weight at 10 mg/kg, po qd for 7 days; type: organism-based; conditions: in vivo, 168 h, time 7 day
[15] = Toxicity in NOD-SCID mouse xenografted with human Granta-519 cells assessed as red blood cells count at 5 mg/kg, po qd for 3 days and 4 days off intermittent dosing for 3 cycles co-administered with PARP inhibitor, niraparib and measured on day 21; type: organism-based; conditions: in vivo, 504 h, time 21 day
[16] = Clearance in rat hepatocytes at 1 uM measured per million cells by ESI/LC-MS/MS analysis; type: ADME, cell-based, Hepatocyte; conditions: read-out: CLH
[17] = biological target: T1, Serine/threonine-protein kinase ATR; assay: Inhibition of ATR in human HeLa S3 cells assessed as decrease in CHK1 phosphorylation at Ser345 residue pretreated for 20 mins followed by gemcitabine stimulation for 3.5 to 4 hrs by AlphaScreen SurFire assay; type: cell-based
Target sequence in this assay (Q13535 whole entry): as the sequence (Q13535 whole entry, looked up) above

[18] = Toxicity in NOD-SCID mouse xenografted with human Granta-519 cells assessed as early stage erythroblasts in bone marrow at 10 mg/kg, po qd for 3 days and measured at 4 days after treatment cessation by flow cytometry; type: organism-based; conditions: in vivo, 72 h, time 3 day
[19] = Toxicity in BALB/c mouse assessed as depletion of erythroid lineage by measuring increase in myeloid to erythroid ratio in bone marrow at 10 mg/kg, po qd for 3 days; type: organism-based; conditions: in vivo, 72 h, time 3 day
[20] = Toxicity in BALB/c mouse assessed as early stage erythroblasts in bone marrow at 10 mg/kg, po qd for 3 days and measured at 1 day after treatment discontinuation by flow cytometry; type: organism-based; conditions: in vivo, 72 h, time 3 day
[21] = Clearance in human hepatocytes at 1 uM measured per million cells by ESI/LC-MS/MS analysis; type: ADME, cell-based, Hepatocyte; conditions: read-out: CLH
[22] = Oral bioavailability in Sprague-Dawley rat at 2.5 to 5 mg/kg formulated as a solution in 5% NMP:95% (10% VitE TPGS in water) measured for 24 hrs by reverse phase liquid chromatography coupled to mass spectrometry; type: ADME, organism-based; conditions: in vivo, dose 2.5-5 mg/kg
[23] = Oral bioavailability in CD-1 mouse at 20 mg/kg formulated as suspension in 0.5% methocel and 0.02% SLS in 50 mM citrate buffer measured for 24 hrs by reverse phase liquid chromatography coupled to mass spectrometry; type: ADME, organism-based; conditions: in vivo
Granta-519 [24] = assay: Antitumor activity against human Granta-519 cells xenografted in NOD-SCID mouse assessed as reduction in tumor volume at 5 mg/kg, po qd for 3 days co-administered with PARP inhibitor, niraparib; type: functional, organism-based; conditions: time 3.0 day
[25] = Toxicity in NOD-SCID mouse xenografted with human Granta-519 cells assessed as red blood cells at 30 mg/kg, po qd for 3 days and 4 days off treatment and measured on day 14; type: organism-based; conditions: in vivo, 72 h, time 3 day
[26] = Toxicity in BALB/c mouse assessed as morphological changes in myeloid lineage cells in bone marrow at 10 mg/kg, po qd for 3 days; type: organism-based; conditions: in vivo, 72 h, time 3 day
[27] = Clearance in mouse hepatocytes at 1 uM measured per million cells by ESI/LC-MS/MS analysis; type: ADME, cell-based, Hepatocyte; conditions: read-out: CLH
[28] = Toxicity in NOD-SCID mouse xenografted with human Granta-519 cells assessed as reduction in late stage erythroblasts in bone marrow at 10 mg/kg, po qd for 1 day co-administered with PARP inhibitor, niraparib by flow cytometry; type: organism-based; conditions: in vivo, 24 h
[29] = Toxicity in BALB/c mouse assessed as reticulocytes in bone marrow at 10 mg/kg, po qd for 3 days and measured at 4 days after treatment discontinuation; type: organism-based; conditions: in vivo, 72 h, time 3 day
Granta-519 [30] = assay: Antitumor activity against human Granta-519 cells xenografted in NOD-SCID mouse assessed as decrease in tumor volume at 10 mg/kg, po qd for 7 days; type: functional, organism-based; conditions: time 7.0 day
[31] = Toxicity in NOD-SCID mouse xenografted with human Granta-519 cells assessed as late stage erythroblasts in bone marrow at 10 mg/kg, po qd for 3 days and measured at 2 days after treatment cessation by flow cytometry; type: organism-based; conditions: in vivo, 72 h, time 3 day
[32] = Clearance in monkey hepatocytes at 1 uM in presence of NADPH by ESI/LC-MS/MS analysis; type: ADME, cell-based, Macaca mulatta, Hepatocyte; conditions: rhesus monkey

## C[C@@H]1COCCN1c1cc([C@]2(O)C[C@H]3CC[C@@H](C2)O3)c2cnn(-c3cc[nH]n3)c2n1 [CAMONSERTIB]
[1]
  inhibition: Active
[2]
  Activity: Non-Toxic
[3]
  Activity: Non-Toxic
[4]
  Activity: Non-Toxic
[5]
  Activity: Non-Toxic
[6]
  Activity: Toxic
[7]
  Activity: Non-Toxic
[8]
  Activity: Non-Toxic
[9]
  Activity: Non-Toxic
[10]
  clearance: 22 mL/min/kg
[11]
  Activity: Toxic
[12]
  microsomal CLint at 1 µM: 26 µL/min/mg
[13]
  Activity: Non-Toxic
[14]
  Activity: Non-Toxic
[15]
  Activity: Non-Toxic
[16]
  hepatocyte CLint at 1 µM: 17 µL/min/1e6 cells
[17]
  IC50: 0.9 nM
[18]
  Activity: Non-Toxic
[19]
  Activity: Toxic
[20]
  Activity: Non-Toxic
[21]
  hepatocyte CLint at 1 µM: 1.5 µL/min/1e6 cells
[22]
  bioavailability: 66%
[23]
  bioavailability: 72%
Granta-519 [24]
  Activity: Active
[25]
  Activity: Non-Toxic
[26]
  Activity: Non-Toxic
[27]
  hepatocyte CLint at 1 µM: 11 µL/min/1e6 cells
[28]
  Activity: Toxic
[29]
  Activity: Non-Toxic
Granta-519 [30]
  Activity: Active
[31]
  Activity: Non-Toxic
[32]
  CLH: 3.6 µL/min
